In the NIST ThermoML archive (doi:10.1016/j.jct.2019.02.025):
Numbers after ± are expanded uncertainties.

Key:
[1] = for mass density / kinematic viscosity: 101.33 kPa, Liquid; for mass density: Vibrating tube method; for surface tension liquid-gas / kinematic viscosity: Surface laser light scattering (SLLS)
[2] = refractive index (Na D-line) (dimensionless); conditions: 101.33 kPa, Liquid, Standard Abbe refractometry

Compound: CCCCCCCCCCCC [dodecane]
- mass density ([1]; 293.15 K): 748.81 ± 1.5 kg/m3
- surface tension liquid-gas ([1]; 298.16 K): 23.37 ± 0.73 mN/m
- kinematic viscosity ([1]; 298.16 K): 1.76e-06 ± 7.1e-08 m2/s
- mass density ([1]; 303.15 K): 741.42 ± 1.5 kg/m3
- mass density ([1]; 313.15 K): 734.08 ± 1.5 kg/m3
- mass density ([1]; 323.15 K): 726.74 ± 1.5 kg/m3
- surface tension liquid-gas ([1]; 323.23 K): 21.9 ± 0.17 mN/m
- kinematic viscosity ([1]; 323.23 K): 1.25e-06 ± 4.8e-08 m2/s
- mass density ([1]; 333.15 K): 719.38 ± 1.5 kg/m3
- mass density ([1]; 343.15 K): 711.32 ± 1.4 kg/m3
- surface tension liquid-gas ([1]; 348.21 K): 20.09 ± 0.21 mN/m
- kinematic viscosity ([1]; 348.21 K): 9.24e-07 ± 3e-08 m2/s
- mass density ([1]; 353.15 K): 704.62 ± 1.4 kg/m3
- mass density ([1]; 363.15 K): 697.21 ± 1.4 kg/m3
- mass density ([1]; 373.15 K): 689.75 ± 1.4 kg/m3
- surface tension liquid-gas ([1]; 373.29 K): 18.02 ± 0.22 mN/m
- kinematic viscosity ([1]; 373.29 K): 7.24e-07 ± 3.2e-08 m2/s
- mass density ([1]; 383.15 K): 682.25 ± 1.4 kg/m3
- mass density ([1]; 393.15 K): 674.68 ± 1.4 kg/m3
- surface tension liquid-gas ([1]; 398.25 K): 16.1 ± 0.16 mN/m
- kinematic viscosity ([1]; 398.25 K): 5.87e-07 ± 2.2e-08 m2/s
- mass density ([1]; 403.15 K): 667.04 ± 1.4 kg/m3
- mass density ([1]; 413.15 K): 659.32 ± 1.3 kg/m3
- mass density ([1]; 423.15 K): 651.53 ± 1.3 kg/m3
- surface tension liquid-gas ([1]; 423.26 K): 14.25 ± 0.11 mN/m
- kinematic viscosity ([1]; 423.26 K): 4.89e-07 ± 1.9e-08 m2/s
- mass density ([1]; 433.15 K): 643.6 ± 1.3 kg/m3
- mass density ([1]; 443.15 K): 635.55 ± 1.3 kg/m3
- surface tension liquid-gas ([1]; 448.27 K): 12.32 ± 0.09 mN/m
- kinematic viscosity ([1]; 448.27 K): 4.16e-07 ± 1.8e-08 m2/s
- mass density ([1]; 453.15 K): 627.38 ± 1.3 kg/m3
- mass density ([1]; 463.15 K): 619.09 ± 1.3 kg/m3
- mass density ([1]; 473.15 K): 610.6 ± 1.2 kg/m3

Compound: CCCCCCCCCC(=O)OCC [ethyl decanoate]
- refractive index ([2]; 278.15 K): 1.43213 ± 0.00052
- refractive index ([2]; 283.15 K): 1.43 ± 0.00052
- refractive index ([2]; 288.15 K): 1.42789 ± 0.00052
- refractive index ([2]; 293.15 K): 1.42577 ± 0.00052
- refractive index ([2]; 298.15 K): 1.42366 ± 0.00052
- refractive index ([2]; 303.15 K): 1.42155 ± 0.00052
- refractive index ([2]; 308.15 K): 1.41944 ± 0.00052
- refractive index ([2]; 313.15 K): 1.41729 ± 0.00052
- refractive index ([2]; 318.15 K): 1.41512 ± 0.00052
- refractive index ([2]; 323.15 K): 1.41297 ± 0.00052
- refractive index ([2]; 328.15 K): 1.41084 ± 0.00052
- refractive index ([2]; 333.15 K): 1.40873 ± 0.00052
- refractive index ([2]; 338.15 K): 1.40661 ± 0.00052
- refractive index ([2]; 343.15 K): 1.40451 ± 0.00052
- refractive index ([2]; 348.15 K): 1.40241 ± 0.00052
- refractive index ([2]; 353.15 K): 1.40034 ± 0.00052
- refractive index ([2]; 358.15 K): 1.39826 ± 0.00052
- mass density ([1]; 293.15 K): 864.08 ± 1.7 kg/m3
- surface tension liquid-gas ([1]; 298.13 K): 23.87 ± 0.3 mN/m
- kinematic viscosity ([1]; 298.13 K): 2.2e-06 ± 8.7e-08 m2/s
- mass density ([1]; 303.15 K): 855.82 ± 1.7 kg/m3
- mass density ([1]; 313.15 K): 847.62 ± 1.7 kg/m3
- surface tension liquid-gas ([1]; 323.11 K): 22.57 ± 0.35 mN/m
- kinematic viscosity ([1]; 323.11 K): 1.59e-06 ± 6.1e-08 m2/s
- mass density ([1]; 323.15 K): 839.41 ± 1.7 kg/m3
- mass density ([1]; 333.15 K): 830.71 ± 1.7 kg/m3
- mass density ([1]; 343.15 K): 822.79 ± 1.6 kg/m3
- surface tension liquid-gas ([1]; 348.1 K): 21.38 ± 0.27 mN/m
- kinematic viscosity ([1]; 348.1 K): 1.22e-06 ± 4.6e-08 m2/s
- mass density ([1]; 353.15 K): 814.9 ± 1.6 kg/m3
- mass density ([1]; 363.15 K): 806.72 ± 1.6 kg/m3
- mass density ([1]; 373.15 K): 798.5 ± 1.6 kg/m3
- surface tension liquid-gas ([1]; 373.17 K): 19.81 ± 0.3 mN/m
- kinematic viscosity ([1]; 373.17 K): 9.55e-07 ± 3.8e-08 m2/s
- mass density ([1]; 383.15 K): 790.26 ± 1.6 kg/m3
- mass density ([1]; 393.15 K): 781.97 ± 1.6 kg/m3
- surface tension liquid-gas ([1]; 398.16 K): 18.26 ± 0.19 mN/m
- kinematic viscosity ([1]; 398.16 K): 7.48e-07 ± 2.5e-08 m2/s
- mass density ([1]; 403.15 K): 773.63 ± 1.6 kg/m3
- mass density ([1]; 413.15 K): 765.29 ± 1.5 kg/m3
- surface tension liquid-gas ([1]; 423.12 K): 16.8 ± 0.3 mN/m
- kinematic viscosity ([1]; 423.12 K): 6.18e-07 ± 2.6e-08 m2/s
- mass density ([1]; 423.15 K): 756.81 ± 1.5 kg/m3
- mass density ([1]; 433.15 K): 748.26 ± 1.5 kg/m3
- mass density ([1]; 443.15 K): 739.7 ± 1.5 kg/m3
- surface tension liquid-gas ([1]; 448.1 K): 14.86 ± 0.35 mN/m
- kinematic viscosity ([1]; 448.1 K): 4.92e-07 ± 1.9e-08 m2/s
- mass density ([1]; 453.15 K): 731.01 ± 1.5 kg/m3

Compound: CCCCCCCCCCCC(=O)OCC [ethyl dodecanoate]
- refractive index ([2]; 278.15 K): 1.43791 ± 0.00051
- refractive index ([2]; 283.15 K): 1.43583 ± 0.00051
- refractive index ([2]; 288.15 K): 1.43375 ± 0.00051
- refractive index ([2]; 293.15 K): 1.43169 ± 0.00051
- refractive index ([2]; 298.15 K): 1.42961 ± 0.00051
- refractive index ([2]; 303.15 K): 1.42755 ± 0.00051
- refractive index ([2]; 308.15 K): 1.42547 ± 0.00051
- refractive index ([2]; 313.15 K): 1.42335 ± 0.00051
- refractive index ([2]; 318.15 K): 1.42125 ± 0.00051
- refractive index ([2]; 323.15 K): 1.41915 ± 0.00051
- refractive index ([2]; 328.15 K): 1.41707 ± 0.00051
- refractive index ([2]; 333.15 K): 1.41501 ± 0.00051
- refractive index ([2]; 338.15 K): 1.41295 ± 0.00051
- refractive index ([2]; 343.15 K): 1.4109 ± 0.00051
- refractive index ([2]; 348.15 K): 1.40886 ± 0.00051
- refractive index ([2]; 353.15 K): 1.40684 ± 0.00051
- refractive index ([2]; 358.15 K): 1.40479 ± 0.00051
- mass density ([1]; 293.15 K): 862 ± 1.7 kg/m3
- surface tension liquid-gas ([1]; 298.03 K): 26.84 ± 0.88 mN/m
- kinematic viscosity ([1]; 298.03 K): 3.11e-06 ± 1.1e-07 m2/s
- mass density ([1]; 303.15 K): 853.15 ± 1.7 kg/m3
- mass density ([1]; 313.15 K): 845.31 ± 1.7 kg/m3
- surface tension liquid-gas ([1]; 323.15 K): 24.54 ± 0.35 mN/m
- kinematic viscosity ([1]; 323.15 K): 1.98e-06 ± 7.7e-08 m2/s
- mass density ([1]; 323.15 K): 838.31 ± 1.7 kg/m3
- mass density ([1]; 333.15 K): 830.53 ± 1.7 kg/m3
- mass density ([1]; 343.15 K): 822.74 ± 1.6 kg/m3
- surface tension liquid-gas ([1]; 348.25 K): 22.85 ± 0.51 mN/m
- kinematic viscosity ([1]; 348.25 K): 1.44e-06 ± 6.9e-08 m2/s
- mass density ([1]; 353.15 K): 814.95 ± 1.6 kg/m3
- mass density ([1]; 363.15 K): 807.16 ± 1.6 kg/m3
- mass density ([1]; 373.15 K): 799.37 ± 1.6 kg/m3
- surface tension liquid-gas ([1]; 373.4 K): 21.17 ± 0.2 mN/m
- kinematic viscosity ([1]; 373.4 K): 1.09e-06 ± 3.6e-08 m2/s
- mass density ([1]; 383.15 K): 791.55 ± 1.6 kg/m3
- mass density ([1]; 393.15 K): 783.72 ± 1.6 kg/m3
- surface tension liquid-gas ([1]; 398.14 K): 19.32 ± 0.12 mN/m
- kinematic viscosity ([1]; 398.14 K): 8.72e-07 ± 2.8e-08 m2/s
- mass density ([1]; 403.15 K): 775.85 ± 1.6 kg/m3
- mass density ([1]; 413.15 K): 767.94 ± 1.5 kg/m3
- surface tension liquid-gas ([1]; 423.13 K): 17.83 ± 0.13 mN/m
- kinematic viscosity ([1]; 423.13 K): 7.19e-07 ± 2.6e-08 m2/s
- mass density ([1]; 423.15 K): 759.99 ± 1.5 kg/m3
- mass density ([1]; 433.15 K): 751.6 ± 1.5 kg/m3
- mass density ([1]; 443.15 K): 744.05 ± 1.5 kg/m3
- surface tension liquid-gas ([1]; 448.22 K): 15.95 ± 0.22 mN/m
- kinematic viscosity ([1]; 448.22 K): 5.91e-07 ± 2.2e-08 m2/s
- mass density ([1]; 453.15 K): 735.97 ± 1.5 kg/m3
